Test results reported in patent publication US6752989B1, “Tooth surface treatment agent” (3M ESPE AG, priority 1999, dated 2004).

System: fluorescence-marked casein
Assay: Proteolytic pepsin activity with fluorescence-marked casein after contact with ground bovine dentine
Format: biochemical
Conditions: 2.5 ml of 10 μg/ml solution, pH 2.0 buffer, on 1 g ground bovine dentine for 20 min; excitation 480 nm, emission 510 nm
Description: 2.5 ml of a pepsin solution (10 μg/ml) in a 20 mM disodium hydrogen phosphate buffer (pH 2.0) were added to 1 g of ground bovine dentine and allowed to remain there for 20 min. under agitation. Subsequently the mixture was centrifuged for 1 min. in a Heraeus Biofuge Pico at 10,000 rpm. 900 μl of the residue were mixed with 12 μg of fluorescence-marked casein (Molecular Probes company, Göttingen) in 100 μl 20 mM of disodium hydrogen phosphate buffer (pH 2.0). The presence of proteolytic pepsin activity is manifested in the increase in fluorescence with an excitation wave length of 480 nm and with an emission wave length of 510 nm.

## pepsin
  proteolytic pepsin activity (increase in fluorescence): no pepsin activity was determinable any more
